Molecular target: T1, crosslinked smooth muscle actomyosin (chicken gizzard smooth muscle myosin subfragment-1 crosslinked to cardiac or skeletal actin) (Gallus gallus, UniProt P10587)
T1 construct: chicken gizzard smooth muscle myosin subfragment-1; from tissue; host or cells: chicken gizzard
Test: Lead optimization pyruvate kinase/horseradish peroxidase/pyruvate oxidase-coupled ATPase assay (compound dose response)
Type: biochemical
Conditions: read-out: IC50 Arithmetic Mean
Protocol: Screening assays were performed using a pyruvate kinase and lactate dehydrogenase-coupled ATPase assay containing the following reagents: Potassium PIPES (50 mM), MgCl2 (3 mM), KCl (100 mM), ATP (0.15 mM), DTT (1 mM), BSA (0.1 mg/ml), NADH (0.5 mM), PEP (1.5 mM), pyruvate kinase (4 U/ml), lactate dehydrogenase (8 U/ml), and antifoam (50 ppm) (concentrations expressed are final assay concentrations). The pH was adjusted to 6.80 at 22° C. by addition of potassium hydroxide. Lead optimization assays were performed with a more sensitive pyruvate kinase/horseradish peroxidase/pyruvate oxidase-coupled ATPase assay containing the following reagents: Potassium PIPES (12 mM), MgCl2 (2 mM), KCl (100 mM), ATP (0.15 mM), BSA (0.05 mg/ml), potassium phosphate (2 mM), amplex red (0.1 mM), PEP (0.1 mM), pyruvate kinase (4 U/ml), horseradish peroxidase (0.5 U/ml), pyruvate oxidase (0.5 U/ml), and antifoam (50 ppm) (concentrations expressed are final assay concentrations). The pH was adjusted to 7.00 at 22° C. by addition of potassium hydroxide.
The protein components specific to this assay are chicken gizzard smooth muscle myosin subfragment-1 that has been chemically crosslinked to either cardiac or skeletal actin using an excess of 1-Ethyl-3-[3-dimethylaminopropyl]carbodiimide hydrochloride and N-hydroxysuccinimide. The exact concentration of the crosslinked smooth muscle myosin in the assay is determined empirically, by titration to achieve a desired rate of ATP hydrolysis. The concentration varies between protein preparations due to variations in the fraction of active molecules in each preparation.
Compound dose response assays are performed by first preparing a dilution series of test compound, each with an assay mixture containing potassium PIPES, MgCl2, KCl, ATP, BSA, potassium phosphate, amplex red, PEP, crosslinked smooth muscle actomyosin (subfragment-1), antifoam, and water. The assay is started by adding an equal volume of solution containing potassium Pipes, MgCl2, KCl, BSA, potassium phosphate, pyruvate kinase, horseradish peroxidase, pyruvate oxidase, antifoam, and water. ATP hydrolysis is monitored by measuring the fluorescence of amplex red (excitation at 480 nm, emission at 615 nm). The resulting dose response curve is fit by the 4 parameter equation y=Bottom+((Top-Bottom)/(1+((IC50/X)^Hill))). The IC50 is defined as the concentration at which ATPase activity is midway between the top and bottom of the dose response curve.

CCc1ccc(NC(=O)OCC2(C(=O)NCc3ccccc3Cl)CCN(S(=O)(=O)CCN)CC2)cc1 [(1-[(2-aminoethyl)sulfonyl]-4-{[N-(4-ethylphenyl)carbamoyloxy]methyl}(4-piperidyl))-N-[(2-chlorophenyl)methyl]carboxamide]
IC50: 0.274 µM

CCc1ccc(NC(=O)OCC2(C(=O)NCc3ccccc3Cl)CCN(C(C)=O)CC2)cc1 [(1-acetyl-4-{[N-(4-ethylphenyl)carbamoyloxy]methyl}(4-piperidyl))-N-[(2-chlorophenyl)methyl]carboxamide]
IC50: 0.418 µM

CCc1ccc(NC(=O)OCC2(C(=O)NCc3ccccc3C#N)CCN(C(=O)CNC(=O)OC(C)(C)C)CC2)cc1 [(1-{2-[(tert-butoxy)carbonylamino]acetyl}-4-{[N-(4-ethylphenyl)carbamoyloxy]methyl}(4-piperidyl))-N-[(2-cyanophenyl)methyl]carboxamide]
IC50: 7.69 µM

CCc1ccc(NC(=O)OCC2(C(=O)NCc3ccccc3OC)CCN(C(=O)CNC(=O)OC(C)(C)C)CC2)cc1 [(1-{2-[(tert-butoxy)carbonylamino]acetyl}-4-{[N-(4-ethylphenyl)carbamoyloxy]methyl}(4-piperidyl))-N-[(2-methoxyphenyl)methyl]carboxamide]
IC50: 11.3 µM

CCc1ccc(NC(=O)NC[C@@H]2CCCN2C(=O)OCc2ccccc2Cl)cc1 [(2-chlorophenyl)methyl (2S)-2-({[(4-ethylphenyl)amino]carbonylamino}methyl)pyrrolidinecarboxylate]
IC50: 3.53 µM

CCc1ccc(NC(=O)OCCOC(=O)NCc2ccccc2Cl)cc1 [(2-{N-[(2-chlorophenyl)methyl]carbamoyloxy}ethoxy)-N-(4-ethylphenyl)carboxamide]
IC50: 3.69 µM

CCc1ccc(NC(=O)OCC2CN(C(=O)CN)CCN2C(=O)NCc2ccccc2Cl)cc1 (stereo not shown) [(4-(2-aminoacetyl)-2-{[N-(4-ethylphenyl)carbamoyloxy]methyl}piperazinyl)-N-[(2-chlorophenyl)methyl]carboxamide]
IC50: 2.38 µM

CCc1ccc(NC(=O)N2CCN(C(=O)CN)C(C(=O)NCc3ccccc3Cl)C2)cc1 (stereo not shown) [(4-(2-aminoacetyl)-3-{N-[(2-chlorophenyl)methyl]carbamoyl}piperazinyl)-N-(4-ethylphenyl)carboxamide]
IC50: 15.2 µM

Cc1ccc(NC(=O)OCC2(C(=O)NCc3ccccc3Cl)CCOCC2)c(C)c1 [(4-{[N-(2,4-dimethylphenyl)carbamoyloxy]methyl}(2H-3,4,5,6-tetrahydropyran-4-yl))-N-[(2-chlorophenyl)methyl]carboxamide]
IC50: 1.26 µM

O=C(Nc1ccccc1Cl)OCC1(C(=O)NCc2ccccc2Cl)CCOCC1 [(4-{[N-(2-chlorophenyl)carbamoyloxy]methyl}(2H-3,4,5,6-tetrahydropyran-4-yl))-N-[(2-chlorophenyl)methyl]carboxamide]
IC50: 17.3 µM

Cc1ccc(NC(=O)OCC2(C(=O)NCc3ccccc3Cl)CCOCC2)cc1C [(4-{[N-(3,4-dimethylphenyl)carbamoyloxy]methyl}(2H-3,4,5,6-tetrahydropyran-4-yl))-N-[(2-chlorophenyl)methyl]carboxamide]
IC50: 2.34 µM

O=C(Nc1cc(Cl)cc(Cl)c1)OCC1(C(=O)NCc2ccccc2Cl)CCOCC1 [(4-{[N-(3,5-dichlorophenyl)carbamoyloxy]methyl}(2H-3,4,5,6-tetrahydropyran-4-yl))-N-[(2-chlorophenyl)methyl]carboxamide]
IC50: 18.3 µM

Cc1c(Cl)cccc1NC(=O)OCC1(C(=O)NCc2ccccc2Cl)CCOCC1 [(4-{[N-(3-chloro-2-methylphenyl)carbamoyloxy]methyl}(2H-3,4,5,6-tetrahydropyran-4-yl))-N-[(2-chlorophenyl)methyl]carboxamide]
IC50: 16.2 µM

Cc1ccc(NC(=O)OCC2(C(=O)NCc3ccccc3Cl)CCOCC2)cc1Cl [(4-{[N-(3-chloro-4-methylphenyl)carbamoyloxy]methyl}(2H-3,4,5,6-tetrahydropyran-4-yl))-N-[(2-chlorophenyl)methyl]carboxamide]
IC50: 1.96 µM

CC(=O)c1ccc(NC(=O)OCC2(C(=O)NCc3ccccc3Cl)CCOCC2)cc1 [(4-{[N-(4-acetylphenyl)carbamoyloxy]methyl}(2H-3,4,5,6-tetrahydropyran-4-yl))-N-[(2-chlorophenyl)methyl]carboxamide]
IC50: 4.27 µM

CC(=O)c1ccc(NC(=O)OCC2(C(=O)NCc3ccccc3Cl)CCN(C(=O)CN)CC2)cc1 [(4-{[N-(4-acetylphenyl)carbamoyloxy]methyl}-1-(2-aminoacetyl)(4-piperidyl))-N-[(2-chlorophenyl)methyl]carboxamide]
IC50: 1.19 µM

O=C(Nc1ccc(Cl)cc1)OCC1(C(=O)NCc2ccccc2Cl)CCOCC1 [(4-{[N-(4-chlorophenyl)carbamoyloxy]methyl}(2H-3,4,5,6-tetrahydropyran-4-yl))-N-[(2-chlorophenyl)methyl]carboxamide]
IC50: 2.78 µM

CCc1ccc(NC(=O)N[C@H]2CCCC[C@@H]2C(=O)NCc2ccccc2Cl)cc1 [((1S,2S)-2-{[(4-ethylphenyl)amino]carbonylamino}cyclohexyl)-N-[(2-chlorophenyl)methyl]carboxamide]
IC50: 16.8 µM

CCc1ccc(NC(=O)OC[C@@H]2CCCN2C(=O)NCc2ccccc2Cl)cc1 [((2S)-2-{[N-(4-ethylphenyl)carbamoyloxy]methyl}pyrrolidinyl)-N-[(2-chlorophenyl)methyl]carboxamide]
IC50: 0.185 µM

CCc1ccc(NC(=O)OC[C@@H]2C[C@@H](N)CN2C(=O)NCc2ccccc2Cl)cc1 [((5S,3R)-3-amino-5-{[N-(4-ethylphenyl)carbamoyloxy]methyl}pyrrolidinyl)-N-[(2-chlorophenyl)methyl]carboxamide]
IC50: 1.44 µM

CCc1ccc(NC(=O)N(CCNC(=O)OC(C)(C)C)CC2(C(=O)NCc3ccccc3Cl)CCN(C(=O)CNC(=O)OC(C)(C)C)CC2)cc1 [(tert-butoxy)-N-(2-{N-[(1-{2-[(tert-butoxy)carbonylamino]acetyl}-4-{N-[(2-chlorophenyl)methyl]carbamoyl}(4-piperidyl))methyl][(4-ethylphenyl)amino]carbonylamino}ethyl)carboxamide]
IC50: 19.5 µM

CCc1ccc(NC(=O)OCC2(C(=O)NCc3ccccc3Br)CCN(C(=O)CN(C)C(=O)OC(C)(C)C)CC2)cc1 [(tert-butoxy)-N-[2-(4-{N-[(2-bromophenyl)methyl]carbamoyl}-4-{[N-(4-ethylphenyl)carbamoyloxy]methyl}piperidyl)-2-oxoethyl]-N-methylcarboxamide]
IC50: 2.86 µM

CCc1ccc(NC(=O)OCC2(C(=O)NCc3ccccc3Cl)CCN(C(=O)C(CO)NC(=O)OC(C)(C)C)CC2)cc1 (stereo not shown) [(tert-butoxy)-N-[2-(4-{N-[(2-chlorophenyl)methyl]carbamoyl}-4-{[N-(4-ethylphenyl)carbamoyloxy]methyl}piperidyl)-1-(hydroxymethyl)-2-oxoethyl]carboxamide]
IC50: 0.661 µM

CCc1ccc(NC(=O)OCC2(C(=O)NCc3ccccc3Cl)CCN(C(=O)C(C)N(C)C(=O)OC(C)(C)C)CC2)cc1 (stereo not shown) [(tert-butoxy)-N-[2-(4-{N-[(2-chlorophenyl)methyl]carbamoyl}-4-{[N-(4-ethylphenyl)carbamoyloxy]methyl}piperidyl)-1-methyl-2-oxoethyl]-N-methylcarboxamide]
IC50: 6.18 µM

CCc1ccc(NC(=O)OCC2(C(=O)NCc3ccccc3Cl)CCN(C(=O)CNC(=O)OC(C)(C)C)CC2)cc1 [(tert-butoxy)-N-[2-(4-{N-[(2-chlorophenyl)methyl]carbamoyl}-4-{[N-(4-ethylphenyl)carbamoyloxy]methyl}piperidyl)-2-oxoethyl]carboxamide]
IC50: 0.919 µM

CCc1ccc(NC(=O)OCC2(C(=O)NCc3ccccc3)CCN(C(=O)CNC(=O)OC(C)(C)C)CC2)cc1 [(tert-butoxy)-N-[2-(4-{[N-(4-ethylphenyl)carbamoyloxy]methyl}-4-[N-benzylcarbamoyl]piperidyl)-2-oxoethyl]carboxamide]
IC50: 11.1 µM

CCc1ccc(NC(=O)OCC2(C(=O)NCc3ccccc3F)CCN(C(=O)CNC(=O)OC(C)(C)C)CC2)cc1 [(tert-butoxy)-N-[2-(4-{[N-(4-ethylphenyl)carbamoyloxy]methyl}-4-{N-[(2-fluorophenyl)methyl]carbamoyl}piperidyl)-2-oxoethyl]carboxamide]
IC50: 3.77 µM

CCc1ccc(NC(=O)OCC2(C(=O)NCc3ccccc3C)CCN(C(=O)CNC(=O)OC(C)(C)C)CC2)cc1 [(tert-butoxy)-N-[2-(4-{[N-(4-ethylphenyl)carbamoyloxy]methyl}-4-{N-[(2-methylphenyl)methyl]carbamoyl}piperidyl)-2-oxoethyl]carboxamide]
IC50: 0.975 µM

Reference: patent US8071625B2, “Certain chemical entities, compositions, and methods” (Cytokinetics, Inc., priority 2006, dated 2011)
